{"source": "patent US8889671B2", "about": "“Compounds and methods for treating bacterial infections” (AstraZeneca AB, priority 2013, dated 2014)", "key": {"Enterococcus faecalis": {"tested_on": "Enterococcus faecalis", "experiment": "In vitro antibacterial activity of Example 5 (MIC)", "type": "cell-based"}, "Klebsiella oxytoca": {"tested_on": "Klebsiella oxytoca", "experiment": "In vitro antibacterial activity of Example 5 (MIC)", "type": "cell-based"}, "Proteus mirabilis": {"tested_on": "Proteus mirabilis", "experiment": "In vitro antibacterial activity of Example 5 (MIC)", "type": "cell-based"}, "Staphylococcus aureus [1]": {"tested_on": "Staphylococcus aureus", "experiment": "Emergence of resistance with serial passage", "type": "cell-based", "settings": "after twenty passages with Example 5, S. aureus isolates (516 and 2398)"}, "[2]": {"tested_on": "Streptococcus pyogenes ATCC12384", "experiment": "Modal MIC against S. pyogenes ATCC12384", "type": "cell-based", "description": "The MIC against S. pyogenes ATCC12384 was determined using the broth microdilution method following CLSI guidelines. Three individual determinations were performed for each strain and the Modal MIC was used for all PK/PD calculations. All animal experiments were performed under UK Home Office Licensure with local ethical committee clearance. All experiments were performed by technicians who have completed parts 1, 2 and 3 of the Home Office Personal License course and hold current personal licenses."}, "[3]": {"experiment": "Plasma pharmacokinetics in S. aureus infected mice", "type": "in vivo, mouse", "settings": "intraperitoneal, mice with ABT", "description": "Groups of satellite mice infected with S. aureus were used for determining plasma concentrations. Dosing started 2 hours after infection and whole blood samples were taken at time points 0.5, 1, 2, 4, 6, 8, 12 and 24 h by submandibular bleed or by cardiac puncture following carbon dioxide asphyxiation and cervical dislocation. Whole blood was sampled into microcontainer tubes containing ethylenediamine tetraacetic acid (EDTA) (Beckton Dickenson). Three mice per time point were used. Plasma was separated by centrifugation for five minutes at 13200 rpm and stored at −20° C. until bioanalysis.\nBiological samples containing Example 5 were extracted using protein precipitation. To one volume of sample, 5 volumes of acetonitrile containing the internal standard (Glyburide) were added. […] A Sciex API 4000, controlled by Analyst v1.4.2, was used for the acquisition of the data and the quantification of Example 5.\nThe plasma profile for each dose group was obtained by calculating the average plasma concentration of compound in each of the three animals per time point. The area under the plasma concentration time curve from zero to infinity (AUC); maximum plasma drug concentration (Cmax); time to reach maximum concentration (tmax); and plasma half-life (t1/2) for each dose group was determined by non-compartmental analysis (WinNonLin 5.2, Pharsight). […]"}, "[4]": {"tested_on": "Staphylococcus haemolyticus", "experiment": "In vitro antibacterial activity of Example 5 (MIC)", "type": "cell-based"}, "Haemophilus influenzae": {"tested_on": "Haemophilus influenzae", "experiment": "In vitro antibacterial activity of Example 5 (MIC)", "type": "cell-based"}, "Enterobacter cloacae": {"tested_on": "Enterobacter cloacae", "experiment": "In vitro antibacterial activity of Example 5 (MIC)", "type": "cell-based"}, "Streptococcus agalactiae": {"tested_on": "Streptococcus agalactiae", "experiment": "In vitro antibacterial activity of Example 5 (MIC)", "type": "cell-based"}, "[5]": {"tested_on": "Stenotrophomonas maltophilia", "experiment": "In vitro antibacterial activity of Example 5 (MIC)", "type": "cell-based"}, "Bacillus subtilis": {"tested_on": "Bacillus subtilis", "experiment": "In vitro antibacterial activity of Example 5 (MIC)", "type": "cell-based", "settings": "11 strains of Bacillus subtilis"}, "Acinetobacter baumannii": {"tested_on": "Acinetobacter baumannii", "experiment": "In vitro antibacterial activity of Example 5 (MIC)", "type": "cell-based"}, "Proteus vulgaris": {"tested_on": "Proteus vulgaris", "experiment": "In vitro antibacterial activity of Example 5 (MIC)", "type": "cell-based"}, "Clostridium perfringens": {"tested_on": "Clostridium perfringens", "experiment": "microbe, parasite or virus in culture", "type": "cell-based"}, "Staphylococcus aureus [6]": {"tested_on": "Staphylococcus aureus", "experiment": "Modal MIC against S. aureus isolates of the thigh model", "type": "cell-based", "description": "The S. aureus strains used included a methicillin-resistant isolate obtained from the American Type Culture Collection (ATCC33591) (MRSA). In addition, three S. aureus clinical isolates were utilized; (1) a methicillin sensitive isolate (MSSA); (2) a recent methicillin-resistant clinical isolate of the USA300 genotype (USA300) and (3) a recent methicillin-resistant clinical isolate of the USA100 genotype ([…]).\nThe MIC against each isolate was determined using the broth microdilution method following CLSI guidelines (Rayner et al. Clinical pharmacodynamics of linezolid in seriously ill patients treated in a compassionate use program. Clin Pharmacokinet 2003. 42:1411-23). Ten individual determinations were performed for each strain and the Modal MIC was used for all PK/PD calculations."}, "Finegoldia magna": {"tested_on": "Finegoldia magna", "experiment": "In vitro antibacterial activity of Example 5 against anaerobes (MIC, agar dilution)", "type": "cell-based", "settings": "ATCC53516; Finegoldia magna (ATCC 53516)"}, "[7]": {"tested_on": "Staphylococcus lugdunensis", "experiment": "In vitro antibacterial activity of Example 5 (MIC)", "type": "cell-based"}, "Enterococcus faecium": {"tested_on": "Enterococcus faecium", "experiment": "In vitro antibacterial activity of Example 5 (MIC)", "type": "cell-based"}, "[8]": {"tested_on": "Prevotella melaninogenica", "experiment": "In vitro antibacterial activity of Example 5 against anaerobes (MIC, agar dilution)", "type": "cell-based"}, "Neisseria gonorrhoeae": {"tested_on": "Neisseria gonorrhoeae", "experiment": "In vitro antibacterial activity of Example 5 (MIC, agar dilution)", "type": "cell-based", "settings": "17 strains of Neisseria gonorrhoeae"}, "Enterobacter aerogenes": {"tested_on": "Enterobacter aerogenes", "experiment": "In vitro antibacterial activity of Example 5 (MIC)", "type": "cell-based", "settings": "Klebsiella aerogenes"}, "Escherichia coli": {"tested_on": "Escherichia coli", "experiment": "In vitro antibacterial activity of Example 5 (MIC)", "type": "cell-based"}, "Citrobacter freundii": {"tested_on": "Citrobacter freundii", "experiment": "In vitro antibacterial activity of Example 5 (MIC)", "type": "cell-based"}}, "note": "“And” between values parts separate entries of the source, which are not always exact repeats. Identical values can stand only once. Like-named read-outs stand apart in the source and are kept apart here."}
{"smiles": "C[C@@H]1CN2c3c(cc4c(N5C(=O)OC[C@@H]5C)noc4c3F)CC3(C(=O)NC(=O)NC3=O)[C@H]2[C@H](C)O1", "note": "[Example 5, (2R,4S,4aS)-11-Fluoro-2,4-dimethyl-8-[(4S)-4-methyl-2-oxo-1,3-oxazolidin-3-yl]-1,2,4,4a-tetrahydro-2′H,6H-spiro[1,4-oxazino[4,3-a][1,2]oxazolo[4,5-g]quinoline-5,5′-pyrimidine]-2′,4′,6′(1′H,3′H)-trione]", "values": [{"measurement": "MIC range", "setting": "Enterococcus faecalis; E. faecalis, n=51", "result": "0.125 to 2", "unit": "µg/mL"}, {"measurement": "MIC", "setting": "Enterococcus faecalis; Enterococcus faecalis", "result": 2, "unit": "µg/mL"}, {"measurement": "MIC", "setting": "Enterococcus faecalis; Enterococcus faecalis, ATCC29212, Enterococcus faecalis (ATCC 29212 CLSI QC Strain)", "result": 1, "unit": "µg/mL"}, {"measurement": "MIC", "setting": "Enterococcus faecalis; Enterococcus faecalis, Enterococcus faecalis (Vancomycin-R, fluoroquinolone-R)", "result": 0.5, "unit": "µg/mL"}, {"measurement": "MIC90", "setting": "Enterococcus faecalis; Enterococcus faecalis, E. faecalis, n=51", "result": 2, "unit": "µg/mL"}, {"measurement": "MIC", "setting": "Klebsiella oxytoca", "result": 32, "unit": "µg/mL"}, {"measurement": "MIC", "setting": "Proteus mirabilis", "result": 8, "unit": "µg/mL"}, {"measurement": "decrease in susceptibility over the starting culture", "setting": "Staphylococcus aureus [1]", "result": "32 fold and 16 fold"}, {"measurement": "MIC", "setting": "[2]", "result": 0.125, "unit": "µg/mL"}, {"measurement": "pharmacokinetics over the dosing range", "setting": "[3]", "result": "nonlinear pharmacokinetics"}, {"measurement": "time of maximum concentration post-administration", "setting": "[3]", "result": 0.5, "unit": "h"}, {"measurement": "MIC", "setting": "[4]", "result": 0.25, "unit": "µg/mL"}, {"measurement": "MIC90", "setting": "[4]; S. haemolyticus, n=21", "result": 0.25, "unit": "µg/mL"}, {"measurement": "MIC", "setting": "Haemophilus influenzae; ATCC49619, Haemophilus influenzae (ATCC 49619 CLSI QC Strain)", "result": 0.25, "unit": "µg/mL"}, {"measurement": "MIC90", "setting": "Haemophilus influenzae; Haemophilus influenzae, n=29", "result": 1, "unit": "µg/mL"}, {"measurement": "MIC range", "setting": "Haemophilus influenzae; Haemophilus influenzae, n=29", "result": "0.125 to 1", "unit": "µg/mL"}, {"measurement": "MIC", "setting": "Enterobacter cloacae; Enterobacter cloacae (Chromosomal AmpC)", "result": 32, "unit": "µg/mL"}, {"measurement": "MIC", "setting": "Enterobacter cloacae; Enterobacter cloacae, read-out: MIC", "result": 32, "unit": "µg/mL"}, {"measurement": "MIC", "setting": "Streptococcus agalactiae", "result": 0.5, "unit": "µg/mL"}, {"measurement": "MIC90", "setting": "Streptococcus agalactiae; 100 strains of S. Agalactiae", "result": 0.25, "unit": "µg/mL"}, {"measurement": "MIC50", "setting": "Streptococcus agalactiae; 100 strains of S. Agalactiae, read-out: MIC50 (MICH [sic])", "result": 0.125, "unit": "µg/mL"}, {"measurement": "MIC", "setting": "[5]", "result": "> 64", "unit": "µg/mL"}, {"measurement": "MIC90", "setting": "Bacillus subtilis", "result": 0.5, "unit": "µg/mL"}, {"measurement": "MIC", "setting": "Acinetobacter baumannii", "result": 4, "unit": "µg/mL"}, {"measurement": "MIC", "setting": "Acinetobacter baumannii; Acinetobacter baumannii (in vivo strain)", "result": 4, "unit": "µg/mL"}, {"measurement": "MIC", "setting": "Acinetobacter baumannii; Acinetobacter baumannii (multi-drug resistant)", "result": 16, "unit": "µg/mL"}, {"measurement": "MIC", "setting": "Proteus vulgaris", "result": 32, "unit": "µg/mL"}, {"measurement": "MIC", "setting": "Clostridium perfringens", "result": 0.5, "unit": "µg/mL"}, {"measurement": "MIC", "setting": "Staphylococcus aureus [6]; ATCC 33591 / MRSA, S. aureus MRSA (ATCC33591)", "result": 0.125, "unit": "µg/mL"}, {"measurement": "MIC", "setting": "Staphylococcus aureus [6]; S. aureus MSSA clinical isolate", "result": 0.0625, "unit": "µg/mL"}, {"measurement": "MIC", "setting": "Staphylococcus aureus [6]; S. aureus USA100 clinical isolate", "result": 0.125, "unit": "µg/mL"}, {"measurement": "MIC", "setting": "Staphylococcus aureus [6]; S. aureus USA300 clinical isolate", "result": 0.25, "unit": "µg/mL"}, {"measurement": "MIC", "setting": "Finegoldia magna", "result": "< 0.03", "unit": "µg/mL"}, {"measurement": "MIC", "setting": "[7]", "result": 1, "unit": "µg/mL"}, {"measurement": "MIC90", "setting": "[7]; S. lugdunensis, n=11", "result": 0.5, "unit": "µg/mL"}, {"measurement": "MIC", "setting": "Enterococcus faecium", "result": 16, "unit": "µg/mL"}, {"measurement": "MIC90", "setting": "Enterococcus faecium; E. faecium", "result": 16, "unit": "µg/mL"}, {"measurement": "MIC", "setting": "Enterococcus faecium; Enterococcus faecium (Vancomycin-R, fluoroquinolone-R)", "result": 8, "unit": "µg/mL"}, {"measurement": "MIC", "setting": "[8]", "result": 0.25, "unit": "µg/mL"}, {"measurement": "MIC90", "setting": "Neisseria gonorrhoeae", "result": 0.125, "unit": "µg/mL"}, {"measurement": "MIC range", "setting": "Neisseria gonorrhoeae", "result": "0.03 to 0.25", "unit": "µg/mL"}, {"measurement": "MIC", "setting": "Enterobacter aerogenes", "result": 64, "unit": "µg/mL"}, {"measurement": "MIC", "setting": "Escherichia coli; ATCC25922, Escherichia coli (ATCC 25922 CLSI QC Strain)", "result": 2, "unit": "µg/mL"}, {"measurement": "MIC", "setting": "Escherichia coli; ATCC25922, Escherichia coli (TolC- of ATCC 25922)", "result": "< 0.06", "unit": "µg/mL"}, {"measurement": "MIC", "setting": "Escherichia coli; ATCC25922, Escherichia coli + 2%Human albumin (ATCC 25922)", "result": "< 0.06", "unit": "µg/mL"}, {"measurement": "MIC", "setting": "Escherichia coli; ATCC35218, Escherichia coli (ATCC 35218 CLSI QC Strain)", "result": 4, "unit": "µg/mL"}, {"measurement": "MIC", "setting": "Escherichia coli; Escherichia coli (K12(W3110))", "result": 2, "unit": "µg/mL"}, {"measurement": "MIC", "setting": "Citrobacter freundii", "result": 16, "unit": "µg/mL"}]}
